These results are taken from ChEMBL document CHEMBL5120930, “Discovery of Benzylpiperazine Derivatives as CNS-Penetrant and Selective Histone Deacetylase 6 Inhibitors” (ACS Med Chem Lett, 2022).

Calls of active or inactive are those of the source. The calls are words filed in the database; no cut-off is given here.

Broadly, the IC50 is the concentration at which inhibition is half-maximal. Broadly, the Papp is a coefficient for how fast a substance crosses the barrier. As a reminder, the logD is lipophilicity at a set pH, counting ionised and neutral species.

The target in one data set is Histone deacetylase 4 (Homo sapiens, UniProt P56524). Put plainly: Inhibition of human HDAC4 using fluorescent peptide Boc-Lys(trifluoroacetyl)-AMC as substrate preincubated for 10 mins followed by substrate addition and measured after 30 mins by fluorogenic assay.
Sequence of Histone deacetylase 4 (P56524 whole entry): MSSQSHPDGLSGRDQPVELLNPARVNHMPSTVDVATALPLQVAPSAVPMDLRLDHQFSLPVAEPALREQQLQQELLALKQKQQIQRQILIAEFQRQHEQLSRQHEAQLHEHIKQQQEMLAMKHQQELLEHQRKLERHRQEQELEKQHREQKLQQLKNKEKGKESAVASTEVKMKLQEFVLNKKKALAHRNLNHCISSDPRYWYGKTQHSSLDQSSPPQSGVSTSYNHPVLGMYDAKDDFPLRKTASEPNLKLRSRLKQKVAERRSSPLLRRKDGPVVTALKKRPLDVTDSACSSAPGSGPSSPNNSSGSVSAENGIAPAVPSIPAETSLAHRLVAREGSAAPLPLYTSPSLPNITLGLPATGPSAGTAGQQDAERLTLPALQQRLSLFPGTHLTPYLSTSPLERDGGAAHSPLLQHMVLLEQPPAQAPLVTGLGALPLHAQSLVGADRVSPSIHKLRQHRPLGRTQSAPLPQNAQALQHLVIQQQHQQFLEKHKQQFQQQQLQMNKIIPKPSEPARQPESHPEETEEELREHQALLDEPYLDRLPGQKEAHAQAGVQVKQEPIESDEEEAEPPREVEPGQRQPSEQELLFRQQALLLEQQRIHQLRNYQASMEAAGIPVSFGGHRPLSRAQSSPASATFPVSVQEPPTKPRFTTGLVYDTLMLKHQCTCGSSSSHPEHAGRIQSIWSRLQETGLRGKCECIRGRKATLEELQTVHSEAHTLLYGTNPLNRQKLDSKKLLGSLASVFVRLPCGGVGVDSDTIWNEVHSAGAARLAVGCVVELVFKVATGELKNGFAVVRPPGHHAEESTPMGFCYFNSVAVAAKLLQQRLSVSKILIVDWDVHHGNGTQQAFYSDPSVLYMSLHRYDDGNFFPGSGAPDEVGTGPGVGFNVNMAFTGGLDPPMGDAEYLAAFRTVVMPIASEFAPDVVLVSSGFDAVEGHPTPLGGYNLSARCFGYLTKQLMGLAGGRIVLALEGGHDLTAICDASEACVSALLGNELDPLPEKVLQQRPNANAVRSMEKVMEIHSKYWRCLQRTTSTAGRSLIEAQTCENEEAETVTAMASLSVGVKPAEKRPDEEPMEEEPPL
For another data set, the target named is Histone deacetylase 1 (Homo sapiens, UniProt Q13547). Kind of data set: Inhibition of human HDAC1 expressed in human HEK-293T cells using fluorescent peptide RHKKAc as substrate preincubated for 10 mins followed by substrate addition and measured after 1 hr by fluorogenic assay.
Sequence of Histone deacetylase 1 (Q13547 whole entry): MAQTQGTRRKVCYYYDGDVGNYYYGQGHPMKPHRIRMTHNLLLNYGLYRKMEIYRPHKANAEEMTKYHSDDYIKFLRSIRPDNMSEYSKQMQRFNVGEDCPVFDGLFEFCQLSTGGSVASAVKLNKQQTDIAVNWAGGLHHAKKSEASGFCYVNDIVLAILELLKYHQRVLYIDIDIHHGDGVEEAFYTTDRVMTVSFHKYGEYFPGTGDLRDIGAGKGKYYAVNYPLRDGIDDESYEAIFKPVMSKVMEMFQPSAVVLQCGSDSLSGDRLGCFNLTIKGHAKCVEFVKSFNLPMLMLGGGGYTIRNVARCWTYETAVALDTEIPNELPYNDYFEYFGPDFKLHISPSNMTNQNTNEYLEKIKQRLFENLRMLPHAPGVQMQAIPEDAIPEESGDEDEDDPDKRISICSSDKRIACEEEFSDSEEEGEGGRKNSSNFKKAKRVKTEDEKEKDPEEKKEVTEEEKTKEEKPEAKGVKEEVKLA
Data set [1] deals with T1, Protein deacetylase HDAC6 (Mus musculus, UniProt Q9Z2V5).
T1 sequence (Q9Z2V5 whole entry): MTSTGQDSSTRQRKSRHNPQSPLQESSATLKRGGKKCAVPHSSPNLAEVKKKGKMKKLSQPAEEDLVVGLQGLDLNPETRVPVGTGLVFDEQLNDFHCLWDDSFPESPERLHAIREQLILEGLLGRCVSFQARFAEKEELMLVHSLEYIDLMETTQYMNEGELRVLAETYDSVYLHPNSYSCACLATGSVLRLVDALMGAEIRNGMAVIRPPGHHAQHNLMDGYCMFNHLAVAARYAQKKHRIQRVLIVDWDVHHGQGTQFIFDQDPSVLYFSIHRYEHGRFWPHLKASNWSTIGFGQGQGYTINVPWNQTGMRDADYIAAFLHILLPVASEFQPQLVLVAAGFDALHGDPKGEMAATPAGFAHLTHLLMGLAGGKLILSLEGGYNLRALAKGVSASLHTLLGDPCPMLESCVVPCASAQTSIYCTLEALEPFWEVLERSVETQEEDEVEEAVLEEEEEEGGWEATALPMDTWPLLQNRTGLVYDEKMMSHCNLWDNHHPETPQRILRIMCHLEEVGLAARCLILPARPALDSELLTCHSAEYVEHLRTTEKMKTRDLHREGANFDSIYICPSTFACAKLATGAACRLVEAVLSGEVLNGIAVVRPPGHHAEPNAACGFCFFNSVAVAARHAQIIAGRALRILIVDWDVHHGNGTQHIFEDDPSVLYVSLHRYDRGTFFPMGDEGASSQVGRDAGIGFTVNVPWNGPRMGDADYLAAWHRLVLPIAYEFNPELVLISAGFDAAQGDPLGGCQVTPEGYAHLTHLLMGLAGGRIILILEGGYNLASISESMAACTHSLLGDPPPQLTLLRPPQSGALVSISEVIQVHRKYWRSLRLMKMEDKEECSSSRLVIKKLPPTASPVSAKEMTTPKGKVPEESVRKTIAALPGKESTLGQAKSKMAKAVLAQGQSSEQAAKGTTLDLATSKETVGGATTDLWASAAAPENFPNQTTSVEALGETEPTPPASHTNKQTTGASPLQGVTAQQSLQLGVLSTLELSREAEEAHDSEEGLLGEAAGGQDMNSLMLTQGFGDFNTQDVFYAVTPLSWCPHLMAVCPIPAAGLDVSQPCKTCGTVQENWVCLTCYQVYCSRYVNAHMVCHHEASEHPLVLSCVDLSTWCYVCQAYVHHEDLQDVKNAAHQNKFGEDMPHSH
Kind of data set: Inhibition of mouse HDAC6 expressed in human HEK-293T cells using fluorescent peptide Ac-KGLGK(Ac)-MCA as substrate preincubated for 10 mins followed by substrate addition and measured after 1 hr by fluorogenic assay. Type of data set: cell-based.

The test system of data set [2] is Mus musculus. Put plainly: Antidepressant activity in restraint-stressed C57BL/6J mouse model assessed as reduction in immobility time at 20 mg/kg, ip measured at 14 mins relative to control (Rvb= 569.6 +/- 27.6 sec). Type of data set: functional.
Data set [3] is filed under the species Homo sapiens. Kind of data set: Selectivity ratio of IC50 for inhibition of human HDAC4 using fluorescent peptide Boc-Lys(trifluoroacetyl)-AMC as substrate to IC50 for inhibition of mouse HDAC6 expressed in human HEK-293T cells using fluorescent peptide Ac-KGLGK(Ac)-MCA as substrate.
A short description of data set [4]: Brain to plasma ratio in C57BL/6J mouse at 10 mg/kg, iv measured after 45 mins by LC-MS/MS analysis. Type of data set: ADME, organism-based. Particulars: brain and plasma, read-out: BPR.
Data set [5] can be described thus: Metabolic stability in human liver microsomes assessed as parent compound remaining at 500 uM measured at 60 mins by LC-MS/MS analysis. Type of data set: ADME, Microsome. The conditions noted are these: read-out: Stability.
A short description of data set [6]: Metabolic stability in mouse liver microsomes assessed as parent compound remaining at 500 uM measured at 60 mins by LC-MS/MS analysis. Type of data set: ADME, Microsome. Particulars: read-out: Stability.
Data set [7] can be described thus: Apparent permeability in human Caco-2 cells incubated for 2 hrs by LC-MS/MS analysis. It is filed as ADME, cell-based. For orientation: Caco-2 cells form a polarised layer with tight junctions and transporters.
The target in data set [8] is Voltage-gated inwardly rectifying potassium channel KCNH2 (Homo sapiens, UniProt Q12809). Kind of data set: Inhibition of human ERG potassium channel by fluorescence polarization assay. It is filed as toxicity. (In general: In fluorescence polarisation assays a small probe gives low polarisation when free and higher when bound to something large.)
Sequence of Voltage-gated inwardly rectifying potassium channel KCNH2 (Q12809 whole entry): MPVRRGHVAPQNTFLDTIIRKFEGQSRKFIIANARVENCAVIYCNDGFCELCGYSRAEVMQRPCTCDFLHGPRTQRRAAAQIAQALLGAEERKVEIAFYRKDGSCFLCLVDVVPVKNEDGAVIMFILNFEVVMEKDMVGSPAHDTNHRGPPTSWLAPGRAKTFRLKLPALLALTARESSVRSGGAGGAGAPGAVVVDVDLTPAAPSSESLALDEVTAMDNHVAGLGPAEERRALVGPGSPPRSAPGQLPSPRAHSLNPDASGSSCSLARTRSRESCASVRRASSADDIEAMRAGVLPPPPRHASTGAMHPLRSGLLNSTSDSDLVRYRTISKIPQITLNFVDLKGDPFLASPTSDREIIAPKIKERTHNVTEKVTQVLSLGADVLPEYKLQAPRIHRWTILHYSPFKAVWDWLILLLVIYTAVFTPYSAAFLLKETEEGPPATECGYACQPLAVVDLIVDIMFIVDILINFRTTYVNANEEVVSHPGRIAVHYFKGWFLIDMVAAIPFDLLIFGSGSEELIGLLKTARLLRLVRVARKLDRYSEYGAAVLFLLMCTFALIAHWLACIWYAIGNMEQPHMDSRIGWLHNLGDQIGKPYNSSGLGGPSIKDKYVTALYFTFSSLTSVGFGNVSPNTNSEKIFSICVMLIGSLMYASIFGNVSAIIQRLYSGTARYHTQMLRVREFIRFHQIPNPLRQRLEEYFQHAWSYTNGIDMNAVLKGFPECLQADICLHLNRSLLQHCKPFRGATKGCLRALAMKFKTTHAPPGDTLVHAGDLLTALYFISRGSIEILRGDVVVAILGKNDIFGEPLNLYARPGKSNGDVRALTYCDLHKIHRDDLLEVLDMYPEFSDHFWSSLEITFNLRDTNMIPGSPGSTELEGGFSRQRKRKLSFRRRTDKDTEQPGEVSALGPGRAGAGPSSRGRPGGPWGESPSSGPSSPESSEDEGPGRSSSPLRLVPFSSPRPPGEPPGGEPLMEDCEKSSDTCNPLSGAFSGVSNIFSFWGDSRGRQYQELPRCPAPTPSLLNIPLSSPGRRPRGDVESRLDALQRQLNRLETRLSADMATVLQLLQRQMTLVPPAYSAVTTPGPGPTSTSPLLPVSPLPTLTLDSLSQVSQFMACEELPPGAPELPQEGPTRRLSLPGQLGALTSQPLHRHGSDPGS
The species entered for data set [9] is Homo sapiens. Kind of data set: Selectivity ratio of IC50 for inhibition of human HDAC1 expressed in human HEK-293T cells using fluorescent peptide RHKKAc as substrate to IC50 for inhibition of mouse HDAC6 expressed in human HEK-293T cells using fluorescent peptide Ac-KGLGK(Ac)-MCA as substrate. It is filed as cell-based.
The nature of data set [10]: Lipophilicity, logD of compound at pH 7.4 measured after 20 mins by UPLC analysis. It is filed as physicochemical. The conditions noted are these: buffer.
The subject of data set [11] is Mus musculus. Kind of data set: Antidepressant activity in restraint-stressed C57BL/6J mouse model assessed as reduction in immobility time at 10 mg/kg, ip measured at 14 mins relative to control (Rvb= 569.6 +/- 27.6 sec). It is filed as functional.
Data set [12] deals with Mus musculus. Put plainly: Antidepressant activity in restraint-stressed C57BL/6J mouse model assessed as increase in acetylated alpha tubulin level in brain at 10 mg/kg, ip measured after 15 mins. Type of data set: functional, organism-based.

`O=C(NO)c1ccccc1CN1CCN(C(c2ccccc2)c2ccccc2)CC1`: the IC50 (at Histone deacetylase 4; at Histone deacetylase 1; in [1]) was above 100 µM each time.

Take `CNCCC(Oc1ccc(C(F)(F)F)cc1)c1ccccc1` (stereo not given) [FLUOXETINE]: the Time with Mus musculus [2] came out at 405.5 s.

For the compound `O=C(NO)c1ccc(CN2CCN(C(c3ccccc3)c3ccccc3)CC2)cc1`, the Ratio IC50 in the data set listed under Homo sapiens [3] and in the data set listed under Homo sapiens [9] was 40 in each case. The Kp at 0.75 h in [4] was found to be 7.91. Also, the remaining at 1 h in data set [5] was 62%. The IC50 against Histone deacetylase 4 amounted to 4.4 µM; in [8] it was 0.66 µM; on Histone deacetylase 1, 4.4 µM; in [1], 0.11 µM. Moreover, in data set [6], the remaining at 1 h, 500 µM worked out at 1%. In addition, the Papp at 2 h in [7] stood at 17.1 ×10⁻⁶ cm/s. Further, the logD at 20 min in data set [10] was 3.8. In the data set with Mus musculus [11], the Time is listed as 410.7 s.

Consider `O=C(NO)c1ccc(CCN2CCN(C(c3ccccc3)c3ccccc3)CC2)cc1`, for which the Ratio IC50 in the data set filed under Homo sapiens [3] was 9; in the data set filed under Homo sapiens [9], 15. Further, the IC50 against Histone deacetylase 4 came out at 3 µM; on Histone deacetylase 1 it was 4.8 µM; in data set [1] it was 0.33 µM.

As to `CC(c1ccccc1)N1CCN(Cc2ccc(C(=O)NO)cc2)CC1` (stereo not given), the Ratio IC50 came out at 47 in the data set listed under Homo sapiens [3] and 26 in the data set listed under Homo sapiens [9]. The Kp at 0.75 h in data set [4] turned out to be 6.73. Moreover, in data set [5], the remaining at 1 h was 63%. The IC50 against Histone deacetylase 4 worked out at 12.3 µM; in [8] it was 106 µM; at Histone deacetylase 1 it was 6.7 µM; in data set [1], 0.26 µM. The remaining at 1 h, 500 µM in data set [6] was determined as 67%. Besides, the Papp at 2 h in data set [7] amounted to 10.9 ×10⁻⁶ cm/s. For the same compound, in the data set on Mus musculus [12], the outcome was Active. In data set [10], the logD at 20 min came out at 2.1. For the same compound, in the data set on Mus musculus [11], the Time was 453 s.

On to `O=C(NO)c1ccc(CCCN2CCN(C(c3ccccc3)c3ccccc3)CC2)cc1`, for which the values for the Ratio IC50 in the data set listed under Homo sapiens [3] and in the data set listed under Homo sapiens [9] were 3 and 7, respectively. Further, the IC50 against Histone deacetylase 4 turned out to be 1.9 µM; against Histone deacetylase 1, 3.8 µM; in [1], 0.58 µM.

For `O=C(NO)c1cccc(CN2CCN(C(c3ccccc3)c3ccccc3)CC2)c1`, the IC50 was above 100 µM against Histone deacetylase 4, 46.6 µM against Histone deacetylase 1 and 6.6 µM in data set [1]. In addition, in the data set listed under Homo sapiens [9], the Ratio IC50 was determined as 7.

Turning to `O=C(NO)c1ccc(CN2CCN(Cc3ccccc3)CC2)cc1`, the Ratio IC50 in the data set listed under Homo sapiens [3] amounted to 35; in the data set filed under Homo sapiens [9], 40. Also, the Kp at 0.75 h in data set [4] is 4.37. The remaining at 1 h in [5] was found to be 73%. The IC50 came to 9.2 µM against Histone deacetylase 4, 73.1 µM in [8], 10.4 µM against Histone deacetylase 1 and 0.26 µM in [1]. Also, in data set [6], the remaining at 1 h, 500 µM came to 80%. Also, the Papp at 2 h in data set [7] was 11.6 ×10⁻⁶ cm/s. Besides, the logD at 20 min in [10] was found to be 1.9. The Time in the data set on Mus musculus [11] was 507.3 s.

Take `O=C(NO)c1ccc(CCCCN2CCN(C(c3ccccc3)c3ccccc3)CC2)cc1`: the Ratio IC50 worked out at 12 in the data set filed under Homo sapiens [3] and 13 in the data set listed under Homo sapiens [9]. Besides, the IC50 against Histone deacetylase 4 amounted to 5 µM; against Histone deacetylase 1, 5.5 µM; in [1], 0.43 µM.
